Bridge positions count the residues as written; N and C are the ends. Square brackets hold non-standard residues; d marks the D form. Peptide text beside a SMILES is read from it. * marks the point of attachment. ξ: configuration not given here. Tyr(3-NO2) = N[C@@H](Cc1ccc(O)c([N+](=O)[O-])c1)C(=O)O; Tyr(3,5-Br2) = N[C@@H](Cc1cc(Br)c(O)c(Br)c1)C(=O)O; Bip = N[C@@H](Cc1ccc(-c2ccccc2)cc1)C(=O)O; Phe(3-Me) = Cc1cccc(C[C@H](N)C(=O)O)c1; 1Nal = N[C@@H](Cc1cccc2ccccc12)C(=O)O; 4Pal = N[C@@H](Cc1ccncc1)C(=O)O; Cha = N[C@@H](CC1CCCCC1)C(=O)O; Cit = NC(=O)NCCC[C@H](N)C(=O)O; Ile(3ξ) = CCC(C)[C@H](N)C(=O)O; AllylGly = C=CC[C@H](N)C(=O)O; NMeL = CN[C@@H](CC(C)C)C(=O)O; Thr(3ξ) = CC(O)[C@H](N)C(=O)O; Ala(CN) = N#CC[C@H](N)C(=O)O; Carboxymethyl = O=C(O)C*; NMeA = CN[C@@H](C)C(=O)O; Orn = NCCC[C@H](N)C(=O)O; Dab = NCC[C@H](N)C(=O)O; Dap = NC[C@H](N)C(=O)O; ξC = NC(CS)C(=O)O
The molecules below were run against T1, PE-labeled human PD-L1-Ig binding to Jurkat cell line over-expressing human PD-1 (Jurkat-PD-1) (Homo sapiens, UniProt Q15116) (assay: Jurkat-PD-1 Cell Binding High-Content Screening Assay (CBA): Method 1). Conditions: Jurkat-hPD-1 cells, PE-labeled PD-L1-Ig 20 nM final; read-out: Jurkat HPDL1 PD1 IC50 (uM) (Method 1).
T1 construct: expressed in transfected cells; host or cells: Jurkat
T1 sequence (Q15116 25-288): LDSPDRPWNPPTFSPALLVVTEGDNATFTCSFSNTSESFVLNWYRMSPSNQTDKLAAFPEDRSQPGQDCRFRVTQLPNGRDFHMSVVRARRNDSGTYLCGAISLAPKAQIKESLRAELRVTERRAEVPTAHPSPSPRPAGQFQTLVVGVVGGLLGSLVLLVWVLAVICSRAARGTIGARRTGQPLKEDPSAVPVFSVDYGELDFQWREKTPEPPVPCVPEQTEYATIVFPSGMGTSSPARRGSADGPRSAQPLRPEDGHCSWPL

Row | Structure (SMILES) | IC50 [µM]
1 | CCC(C)[C@@H]1NC(=O)[C@H](Cc2ccc(-c3ccccc3)cc2)NC(=O)[C@H](C(C)C)NC(=O)[C@H](Cc2c[nH]c3ccccc23)NC(=O)[C@H](CC(N)=O)NC(=O)[C@H](Cc2ccc(OCC(=O)O)cc2)NC(=O)[C@H](Cc2ccncc2)NC(=O)CSC[C@@H](C(=O)N[C@@H](CCCCN)C(N)=O)NC(=O)[C@H](C(C)O)NC(=O)[C@H](C(C)C)NC(=O)[C@H](CC(C)C)NC(=O)[C@H](CC(N)=O)NC(=O)[C@@H](CC(C)C)NC(=O)[C@H](C)N(C)C1=O (stereo partly drawn) [Compound 2055] ({CH2CO}-[4Pal]Y(Carboxymethyl)NWV[Bip][Ile(3ξ)][NMeA][dL]NLV[Thr(3ξ)]CK-NH2; thioether N-14) | 0.95
2 | Cc1cccc(C[C@@H]2NC(=O)[C@H](CC(N)=O)NC(=O)CSC[C@@H](C(=O)N[C@@H](C)C(N)=O)NC(=O)[C@H]([C@@H](C)O)NC(=O)[C@H](C(C)C)NC(=O)[C@H](CC(C)C)NC(=O)[C@H](CCN)NC(=O)[C@@H](CC(C)C)NC(=O)[C@H](C)N(C)C(=O)[C@H](CCCNC(N)=O)NC(=O)[C@H](Cc3ccc(-c4ccccc4)cc3)NC(=O)[C@H](C(C)C)NC(=O)[C@H](Cc3c[nH]c4ccccc34)NC(=O)[C@H](CC(=O)O)NC2=O)c1 [Compound 1311] ({CH2CO}-N[Phe(3-Me)]DWV[Bip][Cit][NMeA][dL][Dab]LVTCA-NH2; thioether N-14) | 0.05
3 | CC(C)C[C@@H]1NC(=O)[C@H](Cc2c[nH]c3ccccc23)NC(=O)[C@H](CC(=O)O)NC(=O)[C@H](Cc2cccc3ccccc23)NC(=O)[C@H](Cc2ccccc2)NC(=O)CSC[C@@H](C(=O)N[C@@H](C)C(N)=O)NC(=O)[C@H](CO)NC(=O)[C@H](C(C)C)NC(=O)[C@H](CC(C)C)NC(=O)[C@H](CC(N)=O)NC(=O)[C@@H](C)NC(=O)[C@H](C)N(C)C(=O)[C@H](C(C)C)NC(=O)[C@H](Cc2ccc(-c3ccccc3)cc2)NC1=O [Compound 1805] ({CH2CO}-F[1Nal]DWL[Bip]V[NMeA][dA]NLVSCA-NH2; thioether N-14) | 0.23
4 | CCC(C)[C@@H]1NC(=O)[C@H](Cc2ccc(-c3ccccc3)cc2)NC(=O)[C@H](C(C)C)NC(=O)[C@H](Cc2cccc(C)c2)NC(=O)[C@H](CC(=O)O)NC(=O)[C@H](Cc2ccc(OCC(=O)O)cc2)NC(=O)[C@H](Cc2ccncc2)NC(=O)CSC[C@@H](C(=O)N[C@@H](CO)C(=O)O)NC(=O)[C@H](CO)NC(=O)[C@H](C(C)C)NC(=O)[C@H](CC2CCCCC2)NC(=O)[C@H](CCN)NC(=O)[C@@H](CC(C)C)NC(=O)[C@H](C)N(C)C1=O (stereo partly drawn) [Compound 2236] ({CH2CO}-[4Pal]Y(Carboxymethyl)D[Phe(3-Me)]V[Bip][Ile(3ξ)][NMeA][dL][Dab][Cha]VSCS-OH; thioether N-14) | 0.31
5 | CC(C)C[C@@H]1NC(=O)[C@H](CCN)NC(=O)[C@@H](CC(C)C)NC(=O)[C@H](C)N(C)C(=O)[C@H](CCCNC(=N)N)NC(=O)[C@H](Cc2ccc(-c3ccccc3)cc2)NC(=O)[C@H](C(C)C)NC(=O)[C@H](Cc2c[nH]c3ccccc23)NC(=O)[C@H](CC(=O)O)NC(=O)[C@H](Cc2ccc(O)cc2)NC(=O)[C@H](CN)NC(=O)CSC[C@@H](C(=O)N[C@@H](C)C(N)=O)NC(=O)[C@H]([C@@H](C)O)NC(=O)[C@H](C(C)C)NC1=O [Compound 1350] ({CH2CO}-[Dap]YDWV[Bip]R[NMeA][dL][Dab]LVTCA-NH2; thioether N-14) | 0.03
6 | CC(C)C[C@@H]1NC(=O)[C@H](CCN)NC(=O)[C@@H](CC(C)C)NC(=O)[C@H](C)N(C)C(=O)[C@H](CCCNC(N)=O)NC(=O)[C@H](Cc2ccc(-c3ccccc3)cc2)NC(=O)[C@H](C(C)C)NC(=O)[C@H](Cc2c[nH]c3ccccc23)NC(=O)[C@H](CC(=O)O)NC(=O)[C@H](Cc2ccc(O)c([N+](=O)[O-])c2)NC(=O)[C@H](Cc2ccncc2)NC(=O)CSC[C@@H](C(=O)N[C@@H](C)C(N)=O)NC(=O)[C@H]([C@@H](C)O)NC(=O)[C@H](C(C)C)NC1=O [Compound 1336] ({CH2CO}-[4Pal][Tyr(3-NO2)]DWV[Bip][Cit][NMeA][dL][Dab]LVTCA-NH2; thioether N-14) | 0.01
7 | CC(C)C[C@@H]1NC(=O)[C@H](CCCN)NC(=O)[C@@H](CC(C)C)NC(=O)[C@H](C)N(C)C(=O)[C@H](CCCNC(=N)N)NC(=O)[C@H](Cc2ccc(-c3ccccc3)cc2)NC(=O)[C@H](C(C)C)NC(=O)[C@H](Cc2c[nH]c3ccccc23)NC(=O)[C@H](CC(=O)O)NC(=O)[C@H](Cc2ccc(O)cc2)NC(=O)[C@H](Cc2ccccc2)NC(=O)CSC[C@@H](C(=O)N[C@@H](C)C(N)=O)NC(=O)[C@H]([C@@H](C)O)NC(=O)[C@H](C(C)C)NC1=O [Compound 1119] ({CH2CO}-FYDWV[Bip]R[NMeA][dL][Orn]LVTCA-NH2; thioether N-14) | 0.03
8 | CC(C)C[C@@H]1NC(=O)[C@H](Cc2c[nH]c3ccccc23)NC(=O)[C@H](CC(=O)O)NC(=O)[C@H](Cc2ccc(OCC(=O)O)cc2)NC(=O)[C@H](Cc2ccc(OCC(=O)O)cc2)NC(=O)CSC[C@@H](C(=O)NCC(N)=O)NC(=O)[C@H](CO)NC(=O)[C@H](C(C)C)NC(=O)[C@H](CC(C)C)NC(=O)[C@H](CC(N)=O)NC(=O)[C@@H](CC(C)C)NC(=O)[C@H](C)N(C)C(=O)[C@H](C(C)C)NC(=O)[C@H](Cc2ccc(-c3ccccc3)cc2)NC1=O [Compound 1550] ({CH2CO}-Y(Carboxymethyl)Y(Carboxymethyl)DWL[Bip]V[NMeA][dL]NLVSCG-NH2; thioether N-14) | 0.01
9 | CC(C)C[C@@H]1NC(=O)[C@H](CCCNC(=N)N)NC(=O)[C@@H](CC(C)C)NC(=O)[C@H](C)N(C)C(=O)[C@H](CCCNC(=N)N)NC(=O)[C@H](Cc2ccc(-c3ccccc3)cc2)NC(=O)[C@H](C(C)C)NC(=O)[C@H](Cc2c[nH]c3ccccc23)NC(=O)[C@H](CC(=O)O)NC(=O)[C@H](Cc2cc(Br)c(O)c(Br)c2)NC(=O)[C@H](Cc2ccccc2)NC(=O)CSC[C@@H](C(=O)N[C@@H](C)C(N)=O)NC(=O)[C@H]([C@@H](C)O)NC(=O)[C@H](C(C)C)NC1=O [Compound 1092] ({CH2CO}-F[Tyr(3,5-Br2)]DWV[Bip]R[NMeA][dL]RLVTCA-NH2; thioether N-14) | 0.42
10 | CC(C)C[C@H]1NC(=O)[C@H](C)N(C)C(=O)[C@H](CCCNC(=N)N)NC(=O)[C@H](Cc2ccc(-c3ccccc3)cc2)NC(=O)[C@H](C(C)C)NC(=O)[C@H](Cc2c[nH]c3ccccc23)NC(=O)[C@H](CC(=O)O)NC(=O)[C@H](Cc2ccc(O)cc2)NC(=O)[C@H](Cc2ccccc2)NC(=O)CSC[C@@H](C(=O)N[C@@H](C)C(N)=O)NC(=O)[C@H]([C@@H](C)O)NC(=O)[C@H](C(C)C)NC(=O)[C@H](CC(C)C)N(C)C(=O)[C@H](CCCNC(=N)N)NC1=O [Compound 1117] ({CH2CO}-FYDWV[Bip]R[NMeA][dL]R[NMeL]VTCA-NH2; thioether N-14) | 0.36
11 | C=CC[C@@H]1NC(=O)[C@H](Cc2cccc(C)c2)NC(=O)[C@H](CC(=O)O)NC(=O)[C@H](Cc2ccncc2)NC(=O)[C@H](Cc2ccc(OCC(=O)O)cc2)NC(=O)CSCC(C(=O)NCC(N)=O)NC(=O)[C@H](CC=C)NC(=O)[C@H](C(C)C)NC(=O)[C@H](CC(C)C)NC(=O)[C@H](CC(N)=O)NC(=O)[C@@H](CC(C)C)NC(=O)[C@H](C)N(C)C(=O)[C@H](C(C)C)NC(=O)[C@H](Cc2ccc(-c3ccccc3)cc2)NC1=O (stereo partly drawn) [Compound 1880] ({CH2CO}-Y(Carboxymethyl)[4Pal]D[Phe(3-Me)][AllylGly][Bip]V[NMeA][dL]NLV[AllylGly][ξC]G-NH2; thioether N-14) | 0.05
12 | CC(C)C[C@@H]1NC(=O)[C@H](Cc2c[nH]c3ccccc23)NC(=O)[C@H](CC(=O)O)NC(=O)[C@H](Cc2ccc(O)cc2)NC(=O)[C@H](Cc2ccccc2)NC(=O)CSC[C@@H](C(=O)NCC(N)=O)NC(=O)[C@H](CO)NC(=O)[C@H](C(C)C)NC(=O)[C@H](CC(C)C)NC(=O)[C@H](CC(N)=O)NC(=O)[C@H](CCCNC(N)=O)NC(=O)[C@H](C)N(C)C(=O)[C@H](C(C)C)NC(=O)[C@H](Cc2ccc(-c3ccccc3)cc2)NC1=O [Compound 1812] ({CH2CO}-FYDWL[Bip]V[NMeA][Cit]NLVSCG-NH2; thioether N-14) | 0.28
13 | CCC(C)[C@@H]1NC(=O)[C@H](Cc2ccc(-c3ccccc3)cc2)NC(=O)[C@H](C(C)C)NC(=O)[C@H](Cc2c[nH]c3ccccc23)NC(=O)[C@H](CC(=O)O)NC(=O)[C@H](Cc2ccc(O)cc2)NC(=O)[C@H](CC#N)NC(=O)CSCC(C(=O)NCC(=O)O)NC(=O)[C@H](C(C)O)NC(=O)[C@H](C(C)C)NC(=O)[C@H](CC2CCCCC2)NC(=O)[C@H](CCN)NC(=O)[C@@H](CC(C)C)NC(=O)[C@H](C)N(C)C1=O (stereo partly drawn) [Compound 2218] ({CH2CO}-[Ala(CN)]YDWV[Bip][Ile(3ξ)][NMeA][dL][Dab][Cha]V[Thr(3ξ)][ξC]G-OH; thioether N-14) | 0.01
14 | Cc1cccc(C[C@@H]2NC(=O)[C@H](CC(=O)O)NC(=O)[C@H](Cc3ccncc3)NC(=O)[C@H](Cc3ccc(OCC(=O)O)cc3)NC(=O)CSC[C@@H](C(=O)N[C@@H](CC(=O)O)C(N)=O)NC(=O)[C@H](CO)NC(=O)[C@H](C(C)C)NC(=O)[C@H](CC(C)C)NC(=O)[C@H](CC(N)=O)NC(=O)[C@@H](CC(C)C)NC(=O)[C@H](C)N(C)C(=O)[C@H](C(C)C)NC(=O)[C@H](Cc3ccc(-c4ccccc4)cc3)NC(=O)[C@H](CC(C)C)NC2=O)c1 [Compound 1601] ({CH2CO}-Y(Carboxymethyl)[4Pal]D[Phe(3-Me)]L[Bip]V[NMeA][dL]NLVSCD-NH2; thioether N-14) | 0.02
15 | CC(C)C[C@@H]1NC(=O)CSC[C@@H](C(=O)N[C@@H](C)C(N)=O)NC(=O)[C@H](CO)NC(=O)[C@H](C(C)C)NC(=O)[C@H](CC(C)C)NC(=O)[C@H](CCCNC(=N)N)NC(=O)[C@@H](CC(C)C)NC(=O)[C@H](C)N(C)C(=O)[C@H](CCCNC(=N)N)NC(=O)[C@H](Cc2ccc(-c3ccccc3)cc2)NC(=O)[C@H](C(C)C)NC(=O)[C@H](Cc2c[nH]c3ccccc23)NC(=O)[C@H](CC(=O)O)NC(=O)[C@H](Cc2ccc(O)cc2)NC1=O [Compound 1037] ({CH2CO}-LYDWV[Bip]R[NMeA][dL]RLVSCA-NH2; thioether N-14) | 0.14

Source: patent US20240409585A1, “MACROCYCLIC IMMUNOMODULATORS” (priority 2021, published 2024)
